Experimental data published in patent EP1056700B1, “MEDICINAL USES OF PHENYLALKANOLS AND DERIVATES” (ZingoTX Pty Ltd, priority 1997, dated 1999).
“Also recorded” adds a separate entry of the source.

Experiments:
cardiac Purkinje fibres = test: Cardiac electrophysiology on Purkinje fibres; parameters: species or system dog; details: for effect on rate of depolarization, amplitude of action potential and duration of action potential at 50% and 90% repolarization: up to 10 µM
Experimental: The basic cardiac electrophysiological properties were assessed using cardiac Purkinje fibres obtained from adult mongrel dogs.
Electrophysiology was carried out on dog heart purkinje fibre to test for potential arrhythmia. […] At high concentration (50 µM), however, [8]-gingerol reduced approximate 80% and 50% of action potential duration at 50% and 90% repolarisations respectively. Whereas the analogue reduced 75% and 30% respectively.

[1] = dogs, 0.3 mg / kg, i.v.; cited from earlier work
left atrium rat = test: Cardiovascular and neuro-effector junction activities: left atrium, rat; details: result in words with concentration
Excerpt: (§1) The cardiotonic action of 1-(4-hydroxy-3-methoxyphenyl)dodecan-3-ol [3.93] was confirmed from independent studies, carried out at our request as part of our agreement with Johnson & Johnson Research Ltd (J&J), by Prof. James Angus from the University of Melbourne. […] A tachycardial effect of the substance on guinea pig atria was, however, observed at significant rate, 50-60% of isoprenaline Emax and the response was not α- or β-adrenoceptor mediated. […] Cardiovascular and neuro-effector junction activities of gingerol analogues

left atrium guinea pig = test: Cardiovascular and neuro-effector junction activities: left atrium, guinea pig; details: for left atrium guinea pig: result in words with concentration
Excerpt: as §1

[2] = system: rabbit platelet-rich plasma; test: Antiplatelet aggregation screen with arachidonic acid in rabbit platelet-rich plasma; format: cell-based
Bleeding time in mice = format: in vivo
NK-1 receptor = target: T1, NK-1 receptor (Cavia porcellus, UniProt P30547); test: Neurokinin-1 binding with [^3H]Substance P on guinea pig submaxillary membrane
T1 construct: tested on guinea pig submaxillary membrane; from tissue; host or cells: guinea pig submaxillary membrane
T1 sequence (P30547 whole entry): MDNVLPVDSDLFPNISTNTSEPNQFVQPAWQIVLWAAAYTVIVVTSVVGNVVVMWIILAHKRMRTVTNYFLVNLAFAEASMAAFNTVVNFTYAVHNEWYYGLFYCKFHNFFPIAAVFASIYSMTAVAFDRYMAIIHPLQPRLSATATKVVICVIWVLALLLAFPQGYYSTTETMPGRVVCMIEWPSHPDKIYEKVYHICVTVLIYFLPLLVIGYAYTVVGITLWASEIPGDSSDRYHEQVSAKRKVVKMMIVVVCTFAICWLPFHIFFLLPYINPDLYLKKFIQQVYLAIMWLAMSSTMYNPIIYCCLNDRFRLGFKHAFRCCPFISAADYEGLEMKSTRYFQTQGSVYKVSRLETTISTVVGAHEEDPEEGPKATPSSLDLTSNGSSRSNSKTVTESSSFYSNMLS
Experimental: 3-hydroxy-1-(4-hydroxy-3-methoxyphenyl)dodecane [3.93], was tested on guinea pig submaxillary membrane for neurokinin-1 (NK-1) antagonist activity with tritium labelled [^3H]Substance P and found to have relatively potent inhibition of the binding of Substance P to NK-1 receptor. […] It gave approximately 80% inhibition at 30 µM.

5-lipoxygenase = target: T2, 5-lipoxygenase (Rattus norvegicus, UniProt P12527); test: 5-lipoxygenase assay (MDS PANLABS), RBL-1 cells, 5-HETE radioimmunoassay; format: biochemical; details: arachidonic acid as substrate
T2 construct: 5-lipoxygenase activity from rat basophilic leukemia cells (RBL-1); host or cells: RBL-1 (rat basophilic leukemia)
T2 sequence (P12527 whole entry): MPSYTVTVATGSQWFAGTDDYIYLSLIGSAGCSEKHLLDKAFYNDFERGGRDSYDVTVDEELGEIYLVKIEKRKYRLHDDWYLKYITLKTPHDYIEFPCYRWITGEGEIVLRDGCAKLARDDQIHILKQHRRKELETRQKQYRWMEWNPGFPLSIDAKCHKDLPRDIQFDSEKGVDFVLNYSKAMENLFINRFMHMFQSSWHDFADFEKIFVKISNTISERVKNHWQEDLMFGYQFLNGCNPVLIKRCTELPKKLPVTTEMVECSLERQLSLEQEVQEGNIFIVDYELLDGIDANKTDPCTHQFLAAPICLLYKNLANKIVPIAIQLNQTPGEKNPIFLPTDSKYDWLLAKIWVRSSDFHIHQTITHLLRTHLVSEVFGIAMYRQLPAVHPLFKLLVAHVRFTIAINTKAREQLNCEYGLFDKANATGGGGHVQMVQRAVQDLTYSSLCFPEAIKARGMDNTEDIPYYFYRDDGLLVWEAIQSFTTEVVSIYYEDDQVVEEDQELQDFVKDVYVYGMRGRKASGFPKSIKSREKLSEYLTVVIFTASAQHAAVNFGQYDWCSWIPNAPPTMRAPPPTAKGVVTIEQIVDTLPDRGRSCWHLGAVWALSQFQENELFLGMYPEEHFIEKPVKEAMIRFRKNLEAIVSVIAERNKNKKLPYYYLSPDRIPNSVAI
Experimental: 3-hydroxy-1-(4-hydroxy-3-methoxyphenyl)dodecane [3.93] was tested at MDS PANLABS: Pharmacology Services (Taiwan) for 5-lipoxygenase activity from rat basophilic leukemia cells (RBL-1) with arachidonic acid as substrate. The inhibitory activity of the substance was quantitated, using radioimmunoassay, from the formation of 5-HETE. At 10 µM, the substance gave approximate 90% inhibition of 5-lipoxygenase activity.

[3] = system: brine shrimp (Artemia salina Leach); test: Brine shrimp toxicity bioassay; format: in vivo; details: result in words
[4] = Acute toxicity in mice for 3 days; format: in vivo
Excerpt: However, no toxicity was shown towards mice for dose by the oral route. […] Brine shrimp toxicity for gingerols and gingerol analogues tested ranged from low to moderate.

CCCCCCCC(O)CC(=O)CCc1ccc(O)c(OC)c1 (stereo not shown) [[8]-gingerol, 5-hydroxy-1-(4-hydroxy-3-methoxyphenyl)dodecan-3-one, reference compound]
Action Potential Amplitude (cardiac Purkinje fibres; 5 µM): 124±2 mV
Action Potential Duration 50% repolarisation (cardiac Purkinje fibres; 5 µM): 242 ± 20 ms
Action Potential Duration 90% repolarisation (cardiac Purkinje fibres; 5 µM): 363 ± 27 ms
Maximum rate of depolarisation (cardiac Purkinje fibres; 5 µM): 532±42 V/s
Action Potential Amplitude (cardiac Purkinje fibres; 10 µM): 120±4 mV
Action Potential Duration 50% repolarisation (cardiac Purkinje fibres; 10 µM): 207 ± 20 ms
Action Potential Duration 90% repolarisation (cardiac Purkinje fibres; 10 µM): 339 ± 26 ms
Maximum rate of depolarisation (cardiac Purkinje fibres; 10 µM): 483±41 V/s
Action Potential Amplitude (cardiac Purkinje fibres; 20 µM): 119±2 mV
Action Potential Duration 50% repolarisation (cardiac Purkinje fibres; 20 µM): 142 ± 20 ms
Action Potential Duration 90% repolarisation (cardiac Purkinje fibres; 20 µM): 285 ± 26 ms
Maximum rate of depolarisation (cardiac Purkinje fibres; 20 µM): 499±41 V/s
Action Potential Amplitude (cardiac Purkinje fibres; 30 µM): 114±3 mV
Action Potential Duration 50% repolarisation (cardiac Purkinje fibres; 30 µM): 107 ± 17 ms
Action Potential Duration 90% repolarisation (cardiac Purkinje fibres; 30 µM): 248 ± 25 ms
Maximum rate of depolarisation (cardiac Purkinje fibres; 30 µM): 443±45 V/s
Action Potential Amplitude (cardiac Purkinje fibres; 40 µM): 116±4 mV
Action Potential Duration 50% repolarisation (cardiac Purkinje fibres; 40 µM): 88 ± 15 ms
Action Potential Duration 90% repolarisation (cardiac Purkinje fibres; 40 µM): 229 ± 22 ms
Maximum rate of depolarisation (cardiac Purkinje fibres; 40 µM): 516±67 V/s
Action Potential Amplitude (cardiac Purkinje fibres; 50 µM): 109±8 mV
Action Potential Duration 50% repolarisation (cardiac Purkinje fibres; 50 µM): 76 ± 12 ms
Action Potential Duration 90% repolarisation (cardiac Purkinje fibres; 50 µM): 221 ± 19 ms
Maximum rate of depolarisation (cardiac Purkinje fibres; 50 µM): 471±73 V/s
reduction of action potential duration at 50% repolarisation (cardiac Purkinje fibres; 50 µM): ~80%
reduction of action potential duration at 90% repolarisation (cardiac Purkinje fibres; 50 µM): ~50%
effect on rate of depolarization, amplitude of action potential and duration of action potential at 50% and 90% repolarization (cardiac Purkinje fibres): insignificant effect
duration of increased cardiac contractility [1]: 10 min
increased cardiac contractility [1]: about 30%

CCCCCCCCCC(O)CCc1ccc(O)c(OC)c1 (stereo not shown) [1-(4-hydroxy-3-methoxyphenyl)dodecan-3-ol]
left atrium rat (left atrium rat): no change in force 10^-7 - 10^-5 M (n=2)
inotropic, % isopren. max. (left atrium guinea pig; left atrium guinea pig, 10^-6 - 3x10^-5 M (not in rat)): 20%
left atrium guinea pig (left atrium guinea pig): inotropic 10^-6 - 3x10^-5 M
platelet function via adenosine diphosphate or thromboxane A2 mechanisms [2]: did not affect
antiplatelet aggregation activity compared with the indomethacin reference compound ([2]; arachidonic acid as substrate): three time more potent
effect on bleeding time (Bleeding time in mice): little or no effect
inhibition at 30 µM (NK-1 receptor): ~80%
inhibition at 10 µM (5-lipoxygenase): ~90%
toxicity towards brine shrimp [3]: low toxicity
Acute toxicity ([4]; mice, 3 days, intraperitoneal administration): slight decrease in spontaneous activity, response to touch and limb tone
Acute toxicity ([4]; mouse, in vivo, po): no toxicity

CCCCCCCC(O)CC(=O)c1ccc(O)c(OC)c1 (stereo not shown) [3-hydroxy-1-(4-hydroxy-3-methoxyphenyl)decan-1-one]
left atrium rat (left atrium rat): no change 10^-7 - 3x10^-5 M (sharp fall 10^-4 M)
left atrium guinea pig (left atrium guinea pig): • no inotropi sm
effect on isoprenaline response, left atrium guinea pig (left atrium guinea pig; up to 30 µM): • no effect on isoprenali ne response (up to 30 µM)
Action Potential Amplitude (cardiac Purkinje fibres; 5 µM): 125±3 mV
Action Potential Duration 50% repolarisation (cardiac Purkinje fibres; 5 µM): 176 ± 17 ms
Action Potential Duration 90% repolarisation (cardiac Purkinje fibres; 5 µM): 270 ± 26 ms
Maximum rate of depolarisation (cardiac Purkinje fibres; 5 µM): 524±66 V/s
Action Potential Amplitude (cardiac Purkinje fibres; 10 µM): 127±4 mV
Action Potential Duration 50% repolarisation (cardiac Purkinje fibres; 10 µM): 157 ± 23 ms
Action Potential Duration 90% repolarisation (cardiac Purkinje fibres; 10 µM): 257 ± 25 ms
Maximum rate of depolarisation (cardiac Purkinje fibres; 10 µM): 527±78 V/s
Action Potential Amplitude (cardiac Purkinje fibres; 20 µM): 123±6 mV
Action Potential Duration 50% repolarisation (cardiac Purkinje fibres; 20 µM): 124 ± 16 ms
Action Potential Duration 90% repolarisation (cardiac Purkinje fibres; 20 µM): 245 ± 17 ms
Maximum rate of depolarisation (cardiac Purkinje fibres; 20 µM): 521±87 V/s
Action Potential Amplitude (cardiac Purkinje fibres; 30 µM): 115±7 mV
Action Potential Duration 50% repolarisation (cardiac Purkinje fibres; 30 µM): 94 ± 10 ms
Action Potential Duration 90% repolarisation (cardiac Purkinje fibres; 30 µM): 212 ± 21 ms
Maximum rate of depolarisation (cardiac Purkinje fibres; 30 µM): 423±45 V/s
Action Potential Amplitude (cardiac Purkinje fibres; 40 µM): 117±7 mV
Action Potential Duration 50% repolarisation (cardiac Purkinje fibres; 40 µM): 81 ± 10 ms
Action Potential Duration 90% repolarisation (cardiac Purkinje fibres; 40 µM): 201 ± 13 ms
Maximum rate of depolarisation (cardiac Purkinje fibres; 40 µM): 442±61 V/s
Action Potential Amplitude (cardiac Purkinje fibres; 50 µM): 110±9 mV
Action Potential Duration 50% repolarisation (cardiac Purkinje fibres; 50 µM): 55 ± 4 ms
Action Potential Duration 90% repolarisation (cardiac Purkinje fibres; 50 µM): 188 ± 19 ms
Maximum rate of depolarisation (cardiac Purkinje fibres; 50 µM): 363±74 V/s
reduction of action potential duration at 50% repolarisation (cardiac Purkinje fibres; 50 µM): 75%
reduction of action potential duration at 90% repolarisation (cardiac Purkinje fibres; 50 µM): 30%
effect on rate of depolarization, amplitude of action potential and duration of action potential at 50% and 90% repolarization (cardiac Purkinje fibres; listed as 3.92): insignificant effect; also recorded: only a small effect
